Key:
[1] = tested on: proliferation of B10.PL (H-2u) responder cells to BALB/c stimulator cells; test: Mixed lymphocyte reaction (MLR) across major histocompatibility barriers, B10.PL vs BALB/c; assay type: cell-based, mice; conditions: 20 μg/well, Cop 1 Batch I, 1:1 ratio of responder to stimulator cells
Description: Responder cells for MLR reactions across major histocompatibility barriers were harvested from spleen of non-immunized mice while responder cells for MLR across minor histocompatibility barriers were harvested from mice which were preimmunized with irradiated (30 Gy) 50×10^6 stimulator spleen cells 21 days before. Responder cells (5×10^5 spleen cells per well) were tested for their proliferative response by plating with different amounts (2.5 to 10×10^5) of irradiated stimulator cells, in presence or absence of various peptide inhibitors (10–100 μg per well). Cultures were set up in 200 μl media containing 10% FCS in flat-bottom microtiter plates. After 4 days of incubation, cultures were pulsed with 1 μCi of [^3H]thymidine for an additional 16 hours. Results are represented as mean counts per minute (cpm) thymidine incorporation from triplicate cultures.
To investigate the feasibility of inhibition of MLR by Copolymer 1, an MLR system was developed in which Copolymer 1 was tested for its ability to inhibit the proliferation of B10.PL (H-2^u) responder cells to stimulator cells of either the same (PL/J) or different (BALB/c) H-2 haplotype. For comparison, the inhibitory MBP Ac 1-11[4A], MBP 35-47, a combination of Ac 1-1[4A]+MBP 35-47, MBP 89-101 and KM-core peptides, described in Schlegel et al. (1994), were used in the MLR experiments.
The inhibition obtained by Copolymer 1 was similar (in response to minor histocompatibility antigen) or even higher (in response to major histocompatibility antigen) than the inhibition obtained with the combination of the two synthetic peptides Ac 1-11[4A] and MBP 35-47, which specifically bind to the class II molecules I-A^u and the I-E^u, respectively. The molar efficiency of Copolymer 1 of M.W. 6000 is even higher since the molecular weight of the synthetic peptides is 4–5 fold lower.

[2] = tested on: function of transplanted thyroids; test: Thyroid graft assay for HVGD (125I absorption of thyroid transplanted in kidney capsule); assay type: in vivo, mice
Description: In this transplantation model for HVGD, thyroid glands from donor mice were transplanted in the kidney's capsules of recipient mice. One week later the transplanted mice were injected with ^125I, and the radioactivity of each kidney (the recipient or the untransplanted kidney) was measured after 20 hours. Δcpm was calculated by subtracting the ^125I absorbance of the untransplanted kidneys from the ^125I absorbance of the recipient kidneys in the same treatment. The mean function index (MFI) for treatment was calculated by dividing the mean Δcpm for the tested (Copolymer 1) treatment by the mean Δcpm for the PBS treatment. P values were obtained by the t test. This assay indicates objectively and quantitatively not only the graft survival, but also the function (iodine absorbance) of the transplanted thyroid tissue (Isakov et al., 1979).
The transplanted mice were treated daily with Copolymer 1 600 μg/day (300 μg ip+300 μg sc) in PBS solution, starting 7 days before transplantation. The first Cop 1 treatment on day −7 was injected sc in ICFA as a depot dose. Control mice were treated daily with PBS alone and PBS with ICFA on day −7 before transplantation.
To test the effect of Copolymer 1 treatment on the function of transplanted thyroids in the B10.D2→BALB/c model, thyroid glands from donors B10.D2 were transplanted in the kidney's capsules of BALB/c mice. After one week the transplanted mice were injected with ^125I, and the radioactivity of each kidney was measured 20 hours later. cpm was calculated by subtracting the ^125I absorbance of the untransplanted kidneys from the ^125I absorbance of the recipient kidneys in the same treatment. The mean function index (MFI) for each treatment was calculated by dividing the mean ^125I absorbance of (transplanted kidney-untransplanted kidney) in the tested treatment by the mean ^125I absorbance of (transplanted kidney-untransplanted kidney) in the PBS treatment, as follows: […]

[3] = tested on: presentation of BALB/c minor H antigens by B10.D2 APC to B10.D2 responder T cells; test: Proliferative responses to minor H antigens, APC pre-pulsed with Cop 1 and washed; assay type: cell-based, mice; conditions: washed
Description: B10.D2 mice were injected ip. with irradiated (20 Gy) BALB/c spleen cells 72 hours prior to the assay. B10.D2 spleen cells were harvested, depleted of red blood cells (RBC) and used as irradiated (10 Gy) antigen-presenting cells (APC) presenting BALB/c mH antigens. For the primary assay, APC were plated at 2.5×10^5 cells per well in 96-well round-bottom plates and incubated with 2.5×10^5 nylon-wool-enriched responder T cells (>88% CD3^+ by FACS analysis) from naive B10.D2 mice in the presence or absence of increasing concentrations of Copolymer 1 (2.5–80 μg/well). After 96 hours of incubation, cells were pulsed with 1 μCi [^3H]-thymidine for an additional 16 hours before harvesting. In the secondary assay, irradiated APC were plated at 2.5×10^5 cells/well in 96-well round-bottom plates, preincubated for 24 hours at 37° C. with increasing concentrations of GLAT (2.5–80 μg/well) or with medium alone, and thereafter washed three times before the addition of 2.5×10^5 nylon-wool-enriched responder T cells from naive B10.D2 mice. Culture medium was RPMI 1640, supplemented with 10% pre-screened fetal calf serum, 2 mM glutamine, 50 μM 2-mercaptoethanol, 100 U/ml penicillin, and 100 μg/ml streptomycin.
[…] Results are expressed as cpm from triplicate cultures. Standard deviations were <20% of the mean. Culture medium was RPMI 1640, supplemented with 10% pre-screened fetal calf serum, 2 mM glutamine, 50 μM 2-mercaptoethanol, 100 U/ml penicillin, and 100 μg/ml streptomycin.

[4] = B10.D2 → BALB, H-2d, another experiment (N 5), Cop 1 600 μg/day
[5] = B10.D2 → BALB/c, H-2d, Cop 1 600 μg, N 10
[6] = B10PL → PL/J, H-2d, Cop 1 600 μg/day
[7] = C57BL → BALB, H-2b → H-2d, Cop 1 600 μg/day
[8] = C57BL → C3H, H-2b, Cop 1 600 μg/day

In the case of Glatiramer acetate [Cop 1], the “inhibition of MLR” value [1] is reported as 77%, the “Mean 125I Absorption, Transplanted Kidney (cpm)” value [2, 4] is reported as 1035 cpm and the “Mean 125I Absorption, Untransplanted Kidney (cpm)” value [2, 4] is reported as 137 cpm. The “cpm (transplanted minus untransplanted kidney)” value [2, 4] was 898 cpm, the “Mean 125I Absorption, Transplanted Kidney (cpm)” value [2, 5] was 2901 cpm and the “Mean 125I Absorption, Untransplanted Kidney (cpm)” value [2, 5] was 450 cpm. The “cpm (transplanted minus untransplanted kidney)” value [2, 5] was 2451 cpm, the “Mean 125I Absorption, Transplanted Kidney (cpm)” value [2, 6] was 2009 cpm and the “Mean 125I Absorption, Untransplanted Kidney (cpm)” value [2, 6] was 332 cpm. For the same substance, the “cpm (transplanted minus untransplanted kidney)” value [2, 6] was 1677 cpm, the “Mean 125I Absorption, Transplanted Kidney (cpm)” value [2, 7] was 10759 cpm and the “Mean 125I Absorption, Untransplanted Kidney (cpm)” value [2, 7] was 924 cpm. The “cpm (transplanted minus untransplanted kidney)” value [2, 7] was 9835 cpm, the “Mean 125I Absorption, Transplanted Kidney (cpm)” value [2, 8] was 1643 cpm and the “Mean 125I Absorption, Untransplanted Kidney (cpm)” value [2, 8] was 281 cpm. The “cpm (transplanted minus untransplanted kidney)” value [2, 8] was 1362 cpm, the “MFI (mean function index)” value ([2]; folds over PBS treatment, B10.D2 → BALB, H-2d, another experiment (N 5), Cop 1 600 μg/day) was 5.2 and the “MFI (mean function index)” value ([2]; folds over PBS treatment, B10.D2 → BALB/c, H-2d, Cop 1 600 μg, N 10) was 3.2. The “MFI (mean function index)” value ([2]; relative to PBS treatment, B10PL → PL/J, H-2d, Cop 1 600 μg/day) was 2.5, the “MFI (mean function index)” value ([2]; relative to PBS treatment, C57BL → BALB, H-2b → H-2d, Cop 1 600 μg/day) was 3.0 and the “MFI (mean function index)” value ([2]; relative to PBS treatment, C57BL → C3H, H-2b, Cop 1 600 μg/day) was 2.3. For the same substance, the “cpm (Cop 1 Pulsing Concentration)” value ([3]; APC pre-pulsed 24 hours with Cop 1 1.5 μg (Batch II)) was 15,533 cpm, the “cpm (Cop 1 Pulsing Concentration)” value ([3]; APC pre-pulsed 24 hours with Cop 1 5 μg (Batch II)) was 12,377 cpm and the “cpm (Cop 1 Pulsing Concentration)” value ([3]; APC pre-pulsed 24 hours with Cop 1 10 μg (Batch II)) was 11,425 cpm. For the same substance, the “cpm (Cop 1 Pulsing Concentration)” value ([3]; APC pre-pulsed 24 hours with Cop 1 20 μg (Batch II)) was 10,465 cpm, the “cpm (Cop 1 Pulsing Concentration)” value ([3]; APC pre-pulsed 24 hours with Cop 1 40 μg (Batch II)) was 7,653 cpm and the “cpm (Cop 1 Pulsing Concentration)” value ([3]; APC pre-pulsed 24 hours with Cop 1 80 μg (Batch II)) was 4,628 cpm.
